Experimental data taken from paper PMC11672294, “The Antipsychotic Drug Aripiprazole Suppresses Colorectal Cancer by Targeting LAMP2a to Induce RNH1/miR‐99a/mTOR‐Mediated Autophagy and Apoptosis” (Advanced Science, 2024).
Structures can show the parent of a compound that is named as a salt.

What follows are compounds tested on HT29. Details: 72 h, relative to DMSO, 10 µM, Relative cell viability (%).
In short: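 HT29 viability used WST-1 reduction (2 h, 37 °C, A450) after 72 h of treatment; screening compounds were tested singly at 10 µM, with dimethyl sulfoxide as the comparison.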

Row | Compound | Relative cell viability (%) [%]
1 | CN1CCN(c2ccc3nc(-c4c(N)c5c(F)cccc5[nH]c4=O)[nH]c3c2)CC1 [Dovitinib (TKI-258) Dilactic Acid] | 12.62
2 | COc1ccc2nc([S@@+]([O-])Cc3ncc(C)c(OC)c3C)[nH]c2c1 [Esomeprazole Magnesium] | 80.51
3 | COc1ccc2nc([S@@+]([O-])Cc3ncc(C)c(OC)c3C)[nH]c2c1 [Esomeprazole Sodium] | 105.5

Same assay, conditions: 72 h, relative to DMSO; 10 µM

Row | Compound | Relative cell viability (%) [%]
4 | COc1cc2nc(N3CCN(C(=O)C4COc5ccccc5O4)CC3)nc(N)c2cc1OC (centres unmarked) [Doxazosin Mesylate] | 63.4
5 | C[C@H]1O[C@@H](n2cc(F)c(=O)[nH]c2=O)[C@H](O)[C@@H]1O [Doxifluridine] | 150.2
6 | CN(C)CCOC(C)(c1ccccc1)c1ccccn1 (centres unmarked) [Doxylamine Succinate] | 83.94
7 | CCCCc1oc2ccc(NS(C)(=O)=O)cc2c1C(=O)c1ccc(OCCCN(CCCC)CCCC)cc1 [Dronedarone HCl] | 86.05
8 | C[C@]12CCC(=O)C=C1[C@@H]1C[C@@H]1[C@H]1[C@@H]3[C@@H]4C[C@@H]4[C@@]4(CCC(=O)O4)[C@@]3(C)CC[C@@H]12 [Drospirenone] | 86.76
9 | CNCC[C@H](Oc1cccc2ccccc12)c1cccs1 [Duloxetine HCl] | 99.61
10 | CCCCOc1ccc(C(=O)CCN2CCCCC2)cc1 [Dyclonine HCl] | 155.2
11 | CCN(c1cc(-c2ccc(CN3CCOCC3)cc2)cc(C(=O)NCc2c(C)cc(C)[nH]c2=O)c1C)C1CCOCC1 [EPZ-6438] | 121.4
12 | CC(C)(C)c1ccc(C(=O)CCCN2CCC(OC(c3ccccc3)c3ccccc3)CC2)cc1 [Ebastine] | 13.94
13 | CC1=NN(c2ccccc2)C(=O)C1 [Edaravone] | 97.66
14 | CN1CCc2nc(C(=O)N[C@@H]3C[C@@H](C(=O)N(C)C)CC[C@@H]3NC(=O)C(=O)Nc3ccc(Cl)cn3)sc2C1 [Edoxaban] | 95.73
15 | O=C1Nc2ccc(Cl)cc2[C@@](C#CC2CC2)(C(F)(F)F)O1 [Efavirenz] | 72.65
16 | COc1cc2c(cc1OC)CN(CCc1ccc(NC(=O)c3cccc4c(=O)c5cccc(OC)c5[nH]c34)cc1)CC2 [Elacridar (GF120918)] | 48.29
17 | CCCCCCCC(=O)N[C@H](CN1CCCC1)[C@H](O)c1ccc2c(c1)OCCO2 [Eliglustat Tartrate] | 81.62
18 | O=c1oc2c(O)c(O)cc3c(=O)oc4c(O)c(O)cc1c4c23 [Ellagic acid] | 74.3
19 | CC1=NN(c2ccc(C)c(C)c2)C(=O)/C1=N\Nc1cccc(-c2cccc(C(=O)O)c2)c1O [Eltrombopag Olamine] | 122
20 | COc1cc2c(cc1Cc1cccc(Cl)c1F)c(=O)c(C(=O)O)cn2[C@H](CO)C(C)C [Elvitegravir (GS-9137, JTK-303)] | 58.4
21 | CCCCCCCCCCCC1=C(O)C(=O)C=C(O)C1=O [Embelin] | 140.6
22 | OC[C@H]1O[C@@H](c2ccc(Cl)c(Cc3ccc(O[C@H]4CCOC4)cc3)c2)[C@H](O)[C@@H](O)[C@@H]1O [Empagliflozin (BI 10773)] | 75.21
23 | C[C@H](NC(=O)C(=O)Nc1ccccc1C(C)(C)C)C(=O)N[C@@H](CC(=O)O)C(=O)COc1c(F)c(F)cc(F)c1F [Emricasan] | 86.75
24 | CCOC(=O)[C@H](CCc1ccccc1)N[C@@H](C)C(=O)N1CCC[C@H]1C(=O)O [Enalapril Maleate] | 98.82

Row | Compound | Relative cell viability (%) [%]
25 | CCn1cc(C(=O)O)c(=O)c2cc(F)c(N3CCNCC3)nc21 [Enoxacin] | 74.15
26 | CCN1CCN(c2cc3c(cc2F)c(=O)c(C(=O)O)cn3C2CC2)CC1 [Enrofloxacin] | 78.16
27 | C=C1[C@H](CO)[C@@H](O)C[C@@H]1n1cnc2c(=O)[nH]c(N)nc21 [Entecavir Hydrate] | 99.22
28 | CN1CCN(c2ccc(C(=O)Nc3n[nH]c4ccc(Cc5cc(F)cc(F)c5)cc34)c(NC3CCOCC3)c2)CC1 [Entrectinib (RXDX-101)] | 2.137
29 | CNC(=O)c1ccc(N2C(=S)N(c3ccc(C#N)c(C(F)(F)F)c3)C(=O)C2(C)C)cc1F [Enzalutamide (MDV3100)] | 86.76
30 | NS(=O)(=O)NCCNc1nonc1C(=NO)Nc1ccc(F)c(Br)c1 [Epacadostat (INCB024360)] | 100.9
31 | CC(/C=C1\SC(=S)N(CC(=O)O)C1=O)=C\c1ccccc1 [Epalrestat] | 135.7
32 | NC1=NCC2c3ccccc3Cc3ccccc3N12 (centres unmarked) [Epinastine HCl] | 78.48
33 | CNC[C@H](O)c1ccc(O)c(O)c1 [Epinephrine HCl] | 70.87
34 | COc1cccc2c1C(=O)c1c(O)c3c(c(O)c1C2=O)C[C@@](O)(C(=O)CO)C[C@@H]3O[C@H]1C[C@H](N)[C@@H](O)[C@H](C)O1 [Epirubicin HCl] | 10.44
35 | C/C(=C\c1csc(C)n1)[C@@H]1C[C@@H]2O[C@]2(C)CCC[C@H](C)[C@H](O)[C@@H](C)C(=O)C(C)(C)[C@@H](O)CC(=O)O1 [Epothilone B (EPO906, Patupilone)] | 7.321
36 | O=C(O)CSCC(=O)NC1CCSC1=O (centres unmarked) [Erdosteine] | 104.7
37 | C#Cc1cccc(Nc2ncnc3cc(OCCOC)c(OCCOC)cc23)c1 [Erlotinib] | 79.06
38 | CCOc1ccc2nc3cc(N)ccc3c(N)c2c1 [Ethacridine lactate monohydrate] | 39.39
39 | CCc1cc(C(N)=S)ccn1 [Ethionamide] | 62.71
40 | CCc1cccc2c3c([nH]c12)C(CC)(CC(=O)O)OCC3 (centres unmarked) [Etodolac] | 86.76
41 | CCOC(=O)c1cncn1[C@H](C)c1ccccc1 [Etomidate] | 60.28
42 | COc1cc([C@@H]2c3cc4c(cc3[C@@H](O[C@@H]3O[C@@H]5CO[C@@H](C)O[C@H]5[C@H](O)[C@H]3O)[C@H]3COC(=O)[C@H]23)OCO4)cc(OC)c1O [Etoposide] | 117.9
43 | Cc1cc(C)c2c(c1)[C@@H](N(Cc1cc(C(F)(F)F)cc(C(F)(F)F)c1)c1nnn(C)n1)CCCN2C[C@H]1CC[C@H](C(=O)O)CC1 [Evacetrapib (LY2484595)] | 40.29
44 | O=c1[nH]c(=O)n(C2CCCO2)cc1F (centres unmarked) [FT-207 (NSC 148958)] | 74.3
45 | NC(N)=Nc1nc(CSCCC(N)=NS(N)(=O)=O)cs1 [Famotidine] | 119.6

Row | Compound | Relative cell viability (%) [%]
46 | NC(=O)OCC(COC(N)=O)c1ccccc1 [Felbamate] | 69.63
47 | CCOC(=O)C1=C(C)NC(C)=C(C(=O)OC)C1c1cccc(Cl)c1Cl (centres unmarked) [Felodipine] | 60.17
48 | CC(C)OC(=O)C(C)(C)Oc1ccc(C(=O)c2ccc(Cl)cc2)cc1 [Fenofibrate] | 74.15
49 | CC(C(=O)O)c1cccc(Oc2ccccc2)c1 (centres unmarked) [Fenoprofen Calcium] | 99.58
50 | Clc1ccc(C(Cn2ccnc2)OCc2ccc(Sc3ccccc3)cc2)c(Cl)c1 (centres unmarked) [Fenticonazole Nitrate] | 58.4
51 | CC(C)C(=O)Oc1ccc(CO)cc1[C@H](CCN(C(C)C)C(C)C)c1ccccc1 [Fesoterodine Fumarate] | 112.6
52 | CCCCCCCCc1ccc(CCC(N)(CO)CO)cc1 [Fingolimod (FTY720) HCl] | 0
53 | CN1CC[C@H](c2c(O)cc(O)c3c(=O)cc(-c4ccccc4Cl)oc23)[C@H](O)C1 [Flavopiridol (Alvocidib)] | 8.879
54 | CS(=O)(=O)c1ccc([C@@H](O)[C@@H](CF)NC(=O)C(Cl)Cl)cc1 [Florfenicol] | 85.76
55 | O=c1[nH]c(=O)n([C@H]2C[C@H](O)[C@@H](CO)O2)cc1F [Floxuridine] | 44.7
56 | COC(=O)Nc1nc2cc(C(=O)c3ccc(F)cc3)ccc2[nH]1 [Flubendazole] | 16.95
57 | OC(Cn1cncn1)(Cn1cncn1)c1ccc(F)cc1F [Fluconazole] | 66.51
58 | Nc1nc(F)nc2c1ncn2[C@@H]1O[C@H](COP(=O)(O)O)[C@@H](O)[C@@H]1O [Fludarabine Phosphate] | 52.49
59 | O=C(O)c1ccccc1Nc1cccc(C(F)(F)F)c1 [Flufenamic acid] | 80.303
60 | CCOC(=O)c1ncn2c1CN(C)C(=O)c1cc(F)ccc1-2 [Flumazenil] | 80.53
61 | Fc1ccc(C(c2ccc(F)cc2)N2CCN(C/C=C/c3ccccc3)CC2)cc1 [Flunarizine 2HCl] | 73.29
62 | Cc1c(Nc2ncccc2C(=O)O)cccc1C(F)(F)F [Flunixin Meglumin] | 128.5
63 | CC(=O)OCC(=O)[C@@]12OC(C)(C)O[C@@H]1C[C@H]1[C@@H]3C[C@H](F)C4=CC(=O)C=C[C@]4(C)[C@@]3(F)[C@@H](O)C[C@@]12C [Fluocinonide] | 56.31
64 | CC(=O)O[C@]1(C(C)=O)CC[C@H]2[C@@H]3C[C@H](C)C4=CC(=O)C=C[C@]4(C)[C@@]3(F)[C@@H](O)C[C@@]21C [Fluorometholone Acetate] | 86.67
65 | CNCCC(Oc1ccc(C(F)(F)F)cc1)c1ccccc1 (centres unmarked) [Fluoxetine HCl] | 86.76
66 | CC(C)C(=O)Nc1ccc([N+](=O)[O-])c(C(F)(F)F)c1 [Flutamide] | 100.9

Same assay, conditions: ht29 cells, 72 h, 10 µM

Row | Compound | Relative cell viability (%) [%]
67 | CCc1c(Cl)c(O)c(Cl)c(O)c1C(=O)O[C@H]1[C@H](O)[C@H](OC)[C@H](OC/C2=C\C=C\C[C@H](O)/C(C)=C/[C@H](CC)[C@@H](O[C@@H]3OC(C)(C)[C@@H](OC(=O)C(C)C)[C@H](O)[C@@H]3O)/C(C)=C/C(C)=C/C[C@@H]([C@@H](C)O)OC2=O)O[C@@H]1C [Fidaxomicin] | 94.85
68 | O=C(Nc1nc2cccc(-c3ccc(CN4CCS(=O)(=O)CC4)cc3)n2n1)C1CC1 [Filgotinib (GLPG0634)] | 50.85
